From PubChem BioAssay (NCI)
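Compound exposure: 48 hours, 5 concentrations, 96-well plates. GI50: concentration for 50% inhibition of growth. The concentration for full growth arrest is given as TGI.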

Key:
Assay in all cases: inhibition of tumour cell growth, NCI panel, 48 h
[1] = system: SW-620 colon
[2] = system: MDA-MB-231 breast
[3] = system: NCI-H460 lung
[4] = system: NCI/ADR-RES ovarian
[5] = system: UACC-62 melanoma
[6] = system: NCI-H23 lung
[7] = system: ACHN renal
[8] = system: UO-31 renal
[9] = system: NCI-H226 lung
[10] = system: SF-268 CNS
[11] = system: SR leukemia
[12] = system: M14 melanoma
[13] = system: HCT-116 colon
[14] = system: HT29 colon
[15] = system: HOP-92 NSCLC
[16] = system: COLO 205 colon
[17] = system: DU-145 prostate
[18] = system: SK-OV-3 ovarian
[19] = system: OVCAR-5 ovarian
[20] = system: HL-60(TB) leukemia
[21] = system: HS 578T breast
[22] = system: OVCAR-8 ovarian
[23] = system: CAKI-1 renal
[24] = system: SNB-19 CNS
[25] = system: CCRF-CEM leukemia
[26] = system: U251 CNS
[27] = system: OVCAR-4 ovarian
[28] = system: HOP-62 NSCLC
[29] = system: SF-295 CNS
[30] = system: SK-MEL-2 melanoma
[31] = system: MDA-MB-435
[32] = system: SK-MEL-28 melanoma
[33] = system: SF-539 CNS
[34] = system: OVCAR-3 ovarian
[35] = system: MCF7 breast
[36] = system: UACC-257 melanoma
[37] = system: LOX IMVI melanoma
[38] = system: RPMI-8226 leukemia
[39] = system: K-562 leukemia
[40] = system: A549 NSCLC
[41] = system: MALME-3M melanoma
[42] = system: TK-10 renal
[43] = system: IGROV1 ovarian
[44] = system: BT-549 breast
[45] = system: NCI-H522 lung
[46] = system: SNB-75 CNS
[47] = system: HCC-2998 colon
[48] = system: A498 renal
[49] = system: MOLT-4 leukemia
[50] = system: HCT-15 colon
[51] = system: RXF 393 renal
[52] = system: SK-MEL-5 melanoma
[53] = system: SN12C renal
[54] = system: KM12 colon
[55] = system: T-47D breast
[56] = system: PC-3 prostate

`Cc1ccc2c(n1)C(=O)C(Cl)=C(Nc1ccc(C)c(C)c1)C2=O` gave a GI50 [1] of 2.07 µM, a TGI [1] of 4.51 µM and a GI50 [2] of 1.62 µM. The TGI [2] was 3.81 µM, the GI50 [3] was 2.07 µM and the TGI [3] was 12 µM. It also gave a GI50 [4] of 2.21 µM, a TGI [4] of 8.26 µM and a GI50 [5] of 1.78 µM. The TGI [5] was 4.36 µM, the GI50 [6] was 1.2 µM and the TGI [6] was 3.95 µM. The GI50 [7] was 1.68 µM, the TGI [7] was 3.13 µM and the GI50 [8] was 1.31 µM. For the same molecule, the TGI [8] was 2.71 µM, the GI50 [9] was 1.72 µM and the TGI [9] was 5.92 µM. For the same molecule, the GI50 [10] was 2.2 µM, the TGI [10] was 6.51 µM and the GI50 [11] was 1.53 µM. It also gave a TGI [11] of 5.75 µM, a GI50 [12] of 1.46 µM and a TGI [12] of 2.96 µM. It also gave a GI50 [13] of 1.15 µM, a TGI [13] of 2.64 µM and a GI50 [14] of 24.7 µM. For the same molecule, the TGI [14] was over 100 µM, the GI50 [15] was 1.98 µM and the TGI [15] was 4.1 µM. It also gave a GI50 [16] of 17.2 µM, a TGI [16] of 44.3 µM and a GI50 [17] of 1.72 µM. For the same molecule, the TGI [17] was 3.42 µM, the GI50 [18] was 22 µM and the TGI [18] was over 100 µM. It also gave a GI50 [19] of 2.23 µM, a TGI [19] of 4.37 µM and a GI50 [20] of 2.27 µM. The TGI [20] was 5.7 µM, the GI50 [21] was 2.26 µM and the TGI [21] was 6.47 µM. It also gave a GI50 [22] of 2.27 µM, a TGI [22] of 6.32 µM and a GI50 [23] of 1.59 µM. It also gave a TGI [23] of 3.16 µM, a GI50 [24] of 1.59 µM and a TGI [24] of 4.07 µM. For the same molecule, the GI50 [25] was 2.46 µM, the TGI [25] was 6.72 µM and the GI50 [26] was 1.48 µM. For the same molecule, the TGI [26] was 2.96 µM, the GI50 [27] was 1.36 µM and the TGI [27] was 2.81 µM. For the same molecule, the GI50 [28] was 2.49 µM, the TGI [28] was 11.2 µM and the GI50 [29] was 1.74 µM. It also gave a TGI [29] of 3.51 µM, a GI50 [30] of 2.54 µM and a TGI [30] of 6.57 µM. For the same molecule, the GI50 [31] was 1.8 µM, the TGI [31] was 3.76 µM and the GI50 [32] was 2.07 µM. For the same molecule, the TGI [32] was 4.28 µM, the GI50 [33] was 1.77 µM and the TGI [33] was 3.23 µM. For the same molecule, the GI50 [34] was 0.59 µM, the TGI [34] was 1.89 µM and the GI50 [35] was 1.01 µM. For the same molecule, the TGI [35] was 2.91 µM, the GI50 [36] was 1.56 µM and the TGI [36] was 2.98 µM. The GI50 [37] was 0.726 µM, the TGI [37] was 3.42 µM and the GI50 [38] was 1.54 µM. For the same molecule, the TGI [38] was 4.7 µM, the GI50 [39] was 2.04 µM and the TGI [39] was over 100 µM. It also gave a GI50 [40] of 3.37 µM, a TGI [40] of 17.3 µM and a GI50 [41] of 2.13 µM. It also gave a TGI [41] of 4.22 µM, a GI50 [42] of 7.48 µM and a TGI [42] of 19.7 µM. The GI50 [43] was 1.85 µM, the TGI [43] was 4.1 µM and the GI50 [44] was 1.41 µM. For the same molecule, the TGI [44] was 2.79 µM, the GI50 [45] was 2 µM and the TGI [45] was 4.9 µM. The GI50 [46] was 1.73 µM, the TGI [46] was 3.87 µM and the GI50 [47] was 2.12 µM. The TGI [47] was 4.69 µM, the GI50 [48] was 10.6 µM and the TGI [48] was 25.3 µM. The GI50 [49] was 1.92 µM, the TGI [49] was 6.59 µM and the GI50 [50] was 1.12 µM. The TGI [50] was 2.88 µM, the GI50 [51] was 1.5 µM and the TGI [51] was 2.85 µM. The GI50 [52] was 1.38 µM, the TGI [52] was 2.74 µM and the GI50 [53] was 2.02 µM. The TGI [53] was 5.27 µM, the GI50 [54] was 2.96 µM and the TGI [54] was over 100 µM. It also gave a GI50 [55] of 0.975 µM, a TGI [55] of 3.22 µM and a GI50 [56] of 1.69 µM. The TGI [56] was 12.7 µM.
